Measurements from publication PMC11211886 (Frontiers in Pharmacology, 2024).

Key:
CYP2C9 mRNA = test: CYP induction in human hepatocytes, CYP2C9 mRNA (RT-PCR); details: for Gene expression Percent of PC (%): 25 µM
Procedure: (§1) […] […] […] Enzyme activity for each CYP isoform was reported as a fold change over vehicle control and the percent of positive control (detailed calculation in Supplementary 1.1). Hepatocytes were harvested with a lysis buffer from RNeasy 96 Kit (Qiagen Inc., Germantown, MD, USA) to isolate RNA, which was analyzed by real-time quantitative polymerase chain reaction (RT-PCR). […] Emax (the maximal observed induction) and EC50 (the concentration that supports half-maximal induction) were estimated by non-linear regression of fold increase in CYP mRNA expression versus concentration plots.
(§2) % of positive control = [(fold change in treated sample)-1] / [(fold change in positive control)-1] × 100
(§3) Based on the gene expression, a minimum of 4-fold increase of positive control compared to vehicle control, a minimum of 2-fold increase of the test article compared vehicle control and increased in a concentration-dependent manner was considered as the cutoff for a positive signal in in vitro induction assay.

CYP2C8 = test: in vitro; details: human; for fold induction at 48 h, 25 µM: Enzyme activity Fold Induction
Procedure: as §1
(§4) The fold of vehicle control and the percent of positive control were calculated with the formulas below:
(§5) Fold of vehicle control = CYPs activity of test compound (or positive control) treated sample / CYPs activity of vehicle control treated sample
as §2
(§6) Based on the enzyme activity, a minimum of 2-fold increase compared to vehicle control for the positive control and ≥40% of the positive control for the test article was considered as the cutoff for a positive signal in in vitro induction assay.

CYP2C9 = test: in vitro; details: human; for fold induction at 48 h, 25 µM: Enzyme activity Fold Induction
Procedure: as §1, §4, §5, §2, §6

CYP2C19 = test: CYP induction in human hepatocytes, CYP2C19 enzyme activity; format: in vitro ADME; details: 25 µM
Procedure: as §1, §4, §5, §2, §6

CYP2C8 mRNA = test: in vitro; details: human; for fold induction at 48 h, 25 µM: Gene expression Fold Induction
Procedure: as §1, §2, §3

CYP2B6 mRNA = test: CYP induction in human hepatocytes, CYP2B6 mRNA (RT-PCR); details: human five, Gene expression Fold Induction, CYP2B6, donor seven, 1000 µM
Procedure: as §1, §2, §3

OATP1B1 = molecular target: T1, OATP1B1 (Homo sapiens, UniProt Q9Y6L6); test: OATP1B1 inhibition, β-estradiol 17-(β-D-glucuronide) uptake in transfected HEK293 cells
T1 sequence (Q9Y6L6 1-691): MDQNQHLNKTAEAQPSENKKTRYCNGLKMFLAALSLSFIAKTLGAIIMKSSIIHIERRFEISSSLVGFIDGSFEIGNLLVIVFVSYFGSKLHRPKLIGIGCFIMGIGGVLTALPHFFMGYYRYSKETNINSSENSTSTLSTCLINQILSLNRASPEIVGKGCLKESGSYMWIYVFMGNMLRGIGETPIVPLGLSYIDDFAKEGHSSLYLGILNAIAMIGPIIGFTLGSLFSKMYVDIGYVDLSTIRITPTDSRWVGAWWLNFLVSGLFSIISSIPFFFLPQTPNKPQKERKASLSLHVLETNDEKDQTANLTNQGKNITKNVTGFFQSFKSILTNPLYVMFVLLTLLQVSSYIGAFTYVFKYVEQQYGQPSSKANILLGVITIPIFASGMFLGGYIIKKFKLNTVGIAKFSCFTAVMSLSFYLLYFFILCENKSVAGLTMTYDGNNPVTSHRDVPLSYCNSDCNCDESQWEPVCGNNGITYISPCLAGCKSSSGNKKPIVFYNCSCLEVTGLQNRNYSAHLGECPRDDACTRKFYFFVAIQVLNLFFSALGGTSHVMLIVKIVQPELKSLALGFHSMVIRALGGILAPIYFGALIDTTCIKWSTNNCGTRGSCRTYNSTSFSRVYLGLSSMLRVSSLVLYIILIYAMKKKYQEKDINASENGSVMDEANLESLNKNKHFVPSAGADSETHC
Procedure: (§7) The pre-incubation solutions were removed, and incubation solutions containing the inhibitors and probe substrates (or transport buffer containing an equal volume of vehicle control and probe substrates) were added and incubated at 37°C for 2 min (5 min for OATP1B3). The probe substrate for OAT1 was 4-aminohippuric acid (10 μM), for OAT3 was estrone 3-sulfate (10 μM), for OCT2 was metformin (100 μM), for OATP1B1 was β-estradiol 17-(β-D-glucuronide) (5 μM), for OATP1B3 was β-estradiol 17-(β-D-glucuronide) (10 μM), and for MATE1 and MATE2-K was tetraethylammonium (10 μM). After incubation, cells were washed three times with ice-cold transport buffer (25 mM HEPES, pH 7.4, pH 8.0 for overexpressing MATE1 and MATE2-K HEK293 cells) and lysed in distilled water. The concentrations of probe substrates were determined by LC-MS/MS, and a BCA Kit (Solarbio ®Life Sciences, Beijing, China) was used to determine the protein content in the cell lysate.
(§8) where C is the concentration of the drug in the cell lysate (nM), P is the protein concentration of the cell lysate (mg/mL), and T is the incubation time (minute). Uptake ratetest compound is the uptake rate of the substrate in the presence of the test compound. Uptake ratevehicle control is the uptake rate of the substrate in the presence of the vehicle control. Uptake ratepassive is the uptake rate of the substrate in the presence of the positive inhibitor at the top test concentration.

OATP1B3 = molecular target: T2, OATP1B3 (Homo sapiens, UniProt Q9NPD5); test: OATP1B3 inhibition, β-estradiol 17-(β-D-glucuronide) uptake in transfected HEK293 cells
T2 sequence (Q9NPD5 1-702): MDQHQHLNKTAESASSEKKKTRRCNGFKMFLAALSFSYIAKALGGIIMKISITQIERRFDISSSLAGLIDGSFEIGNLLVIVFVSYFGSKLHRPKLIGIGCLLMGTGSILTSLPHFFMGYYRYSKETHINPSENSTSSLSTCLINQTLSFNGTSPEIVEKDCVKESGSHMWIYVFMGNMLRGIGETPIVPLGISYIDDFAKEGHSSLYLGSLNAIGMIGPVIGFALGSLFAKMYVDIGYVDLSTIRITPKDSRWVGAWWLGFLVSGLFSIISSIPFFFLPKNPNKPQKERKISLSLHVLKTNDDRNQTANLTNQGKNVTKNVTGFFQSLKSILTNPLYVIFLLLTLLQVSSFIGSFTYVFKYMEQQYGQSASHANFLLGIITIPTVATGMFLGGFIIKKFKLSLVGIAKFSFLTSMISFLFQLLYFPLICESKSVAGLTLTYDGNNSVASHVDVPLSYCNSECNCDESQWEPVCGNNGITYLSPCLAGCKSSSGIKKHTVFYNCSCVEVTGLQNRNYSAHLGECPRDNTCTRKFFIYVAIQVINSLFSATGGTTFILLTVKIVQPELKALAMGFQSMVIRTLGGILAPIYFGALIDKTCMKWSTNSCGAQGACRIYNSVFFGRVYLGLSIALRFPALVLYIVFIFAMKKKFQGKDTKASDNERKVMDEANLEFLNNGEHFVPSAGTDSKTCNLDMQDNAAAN
Procedure: as §7, §8

BCRP = molecular target: T3, BCRP (Homo sapiens, UniProt Q9UNQ0); test: in vitro; details: Caco-2
T3 sequence (Q9UNQ0 1-655): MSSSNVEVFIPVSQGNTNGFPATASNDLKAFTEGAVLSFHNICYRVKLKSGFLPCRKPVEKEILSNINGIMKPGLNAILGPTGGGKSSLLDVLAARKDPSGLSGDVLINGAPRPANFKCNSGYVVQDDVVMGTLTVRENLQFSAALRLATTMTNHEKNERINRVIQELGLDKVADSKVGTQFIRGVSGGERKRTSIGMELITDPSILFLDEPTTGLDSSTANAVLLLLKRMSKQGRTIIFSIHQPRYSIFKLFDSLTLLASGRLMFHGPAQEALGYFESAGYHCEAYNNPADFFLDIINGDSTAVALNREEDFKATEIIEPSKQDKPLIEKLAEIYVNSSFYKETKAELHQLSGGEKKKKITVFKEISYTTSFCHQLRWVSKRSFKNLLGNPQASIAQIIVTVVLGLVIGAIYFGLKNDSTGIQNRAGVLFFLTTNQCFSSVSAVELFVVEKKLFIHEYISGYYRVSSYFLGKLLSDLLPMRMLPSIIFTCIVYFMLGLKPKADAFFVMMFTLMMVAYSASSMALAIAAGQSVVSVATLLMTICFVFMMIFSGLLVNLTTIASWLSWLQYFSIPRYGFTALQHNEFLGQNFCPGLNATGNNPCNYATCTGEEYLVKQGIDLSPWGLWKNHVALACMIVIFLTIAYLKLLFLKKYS
Excerpt: (§9) The experimental conditions were similar to those of the permeability study.

[1] = Caco-2 bidirectional transport permeability; format: in vitro ADME, human; details: human
Procedure: The passage number of cells used in this study was 39. Non-specific binding to the device surfaces and the aqueous solubility of test compounds were tested before the transport experiment. […] The integrity of the monolayer was estimated by measuring transepithelial electrical resistance (TEER). Only the monolayers with TEER over 150 Ω were used for the studies.

P-gp = P-gp (Homo sapiens, UniProt P08183); test: in vitro; details: human, Caco-2
P-gp, sequence (P08183 whole entry): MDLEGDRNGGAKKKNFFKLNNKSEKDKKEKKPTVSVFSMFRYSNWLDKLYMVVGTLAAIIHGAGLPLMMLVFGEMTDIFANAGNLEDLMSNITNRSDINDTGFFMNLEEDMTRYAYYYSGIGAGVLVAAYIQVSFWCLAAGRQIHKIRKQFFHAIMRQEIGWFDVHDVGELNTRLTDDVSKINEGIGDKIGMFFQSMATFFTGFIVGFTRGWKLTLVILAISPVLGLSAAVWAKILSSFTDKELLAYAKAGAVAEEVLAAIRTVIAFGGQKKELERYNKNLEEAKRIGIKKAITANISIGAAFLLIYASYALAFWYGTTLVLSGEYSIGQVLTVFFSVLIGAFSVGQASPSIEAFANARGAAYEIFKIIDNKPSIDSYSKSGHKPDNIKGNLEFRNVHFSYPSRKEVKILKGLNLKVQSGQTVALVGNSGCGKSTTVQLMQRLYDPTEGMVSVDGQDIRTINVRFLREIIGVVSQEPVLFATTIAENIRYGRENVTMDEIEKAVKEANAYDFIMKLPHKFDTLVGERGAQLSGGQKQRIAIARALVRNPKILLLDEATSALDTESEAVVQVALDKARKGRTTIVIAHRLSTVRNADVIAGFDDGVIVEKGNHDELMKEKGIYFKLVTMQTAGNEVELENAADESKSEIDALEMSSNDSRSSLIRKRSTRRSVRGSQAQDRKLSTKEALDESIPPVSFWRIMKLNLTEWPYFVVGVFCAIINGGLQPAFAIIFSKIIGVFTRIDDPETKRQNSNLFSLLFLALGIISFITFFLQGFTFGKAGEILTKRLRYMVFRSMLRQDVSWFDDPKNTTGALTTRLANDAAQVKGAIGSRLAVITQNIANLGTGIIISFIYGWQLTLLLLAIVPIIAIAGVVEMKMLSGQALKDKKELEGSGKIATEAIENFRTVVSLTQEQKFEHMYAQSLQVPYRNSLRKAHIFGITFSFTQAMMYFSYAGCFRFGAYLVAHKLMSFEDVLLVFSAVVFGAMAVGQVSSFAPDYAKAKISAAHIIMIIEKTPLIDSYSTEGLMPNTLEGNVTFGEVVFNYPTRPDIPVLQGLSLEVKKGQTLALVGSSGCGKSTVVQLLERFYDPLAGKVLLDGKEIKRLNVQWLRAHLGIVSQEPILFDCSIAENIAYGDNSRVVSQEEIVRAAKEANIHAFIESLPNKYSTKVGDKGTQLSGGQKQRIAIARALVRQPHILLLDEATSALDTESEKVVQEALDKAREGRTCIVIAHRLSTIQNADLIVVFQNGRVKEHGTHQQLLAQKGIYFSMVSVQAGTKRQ
Excerpt: as §9

CYP1A2 = test: in vitro; details: human; for fold induction at 48 h, 50 µM: Enzyme activity Fold Induction
Procedure: as §1, §4, §5, §2, §6

CYP1A2 mRNA = test: in vitro; details: human; for fold induction at 48 h, 50 µM: Gene expression Fold Induction
Procedure: as §1, §2, §3

SMILES: CCOC(=O)c1ncn2c1CN(C)C(=O)c1cc(F)ccc1-2 [Flumazenil]
- Gene expression Percent of PC (%) (CYP2C9 mRNA; CYP2C9, donor eight): 12.1%
- Gene expression Percent of PC (%) (CYP2C9 mRNA; CYP2C9, donor four): 19.7%
- Gene expression Percent of PC (%) (CYP2C9 mRNA; CYP2C9, donor one): 25.6%
- fold induction at 48 h, 25 µM (CYP2C9 mRNA; female, human): 1.83
- fold induction at 48 h, 25 µM (CYP2C9 mRNA; human three, cryopreserved human hepatocytes (donor four)): 1.52
- fold induction at 48 h, 25 µM (CYP2C9 mRNA; male, human, cryopreserved human hepatocytes): 1.53
- Enzyme activity Percent of PC (%) (CYP2C8; female, 48 h, 25 µM): 3.75%
- fold induction at 48 h, 25 µM (CYP2C8; female): 1.18
- Enzyme activity Fold Induction (CYP2C8; male, 48 h, 25 µM): 1.39 fold
- fold induction at 48 h, 25 µM (CYP2C8; male): 1.05
- Enzyme activity Percent of PC (%) (CYP2C9; female, 48 h, 25 µM): 6.88%
- fold induction at 48 h, 25 µM (CYP2C9; female): 1.11
- Enzyme activity Fold Induction (CYP2C9; male, 48 h, 25 µM): 1.14 fold
- fold induction at 48 h, 25 µM (CYP2C9; male): 1.05
- Enzyme activity Percent of PC (%) (CYP2C19; CYP2C19, donor eight): -3.72%
- Enzyme activity Percent of PC (%) (CYP2C19; CYP2C19, donor four): -3.91%
- Enzyme activity Percent of PC (%) (CYP2C19; CYP2C19, donor one): 1.83%
- fold induction at 48 h, 25 µM (CYP2C19; human three, cryopreserved human hepatocytes, probe S-(+)-mephenytoin (80 µM), CYP2C19, donor eight): 0.87
- Gene expression Percent of PC (%) (CYP2C8 mRNA; female, 48 h, 25 µM): 15.4%
- fold induction at 48 h, 25 µM (CYP2C8 mRNA; female): 1.89
- Gene expression Fold Induction (CYP2C8 mRNA; male, 48 h, 25 µM): 0.92 fold
- fold induction at 48 h, 25 µM (CYP2C8 mRNA; male): 1.05

SMILES: CCC1(c2ccccc2)C(=O)NC(=O)NC1=O [Phenobarbital]
- fold induction at 48 h, 1000 µM (CYP2B6 mRNA): 9.45

SMILES: CO[C@H]1/C=C/O[C@@]2(C)Oc3c(C)c(O)c4c(O)c(c(/C=N/N5CCN(C)CC5)c(O)c4c3C2=O)NC(=O)/C(C)=C\C=C\[C@H](C)[C@H](O)[C@@H](C)[C@@H](O)[C@@H](C)[C@H](OC(C)=O)[C@@H]1C [Rifampicin, reference compound]
- IC50 (OATP1B1): 866 nM
- Percentage transported (OATP1B1; human, 2 min, 10 μM, pH 7.4): 0.00%
- Uptake rate (OATP1B1; human, 2 min, 10 μM, pH 7.4): 3.03±0.536 pmol/mg protein/min
- IC50 (OATP1B3): 611 nM
- Percentage transported (OATP1B3; human, 5 min, 10 μM, pH 7.4): 0.00%
- Uptake rate (OATP1B3; human, 5 min, 10 μM, pH 7.4): 4.46±0.829 pmol/mg protein/min
- inhibition at 5 min, 10 µM (OATP1B3; human, pH 7.4): 100%

SMILES: C[C@]12CC[C@@H]3c4ccc(OS(=O)(=O)O)cc4CC[C@H]3[C@@H]1CCC2=O [E3S, Estrone-3-sulfate, reference compound]
- Papp A-B of E3S (BCRP): 2.79 ×10–^6 cm/s
- Papp B-A of E3S (BCRP): 77.8 ×10–^6 cm/s

SMILES: COCCc1ccc(OCC(O)CNC(C)C)cc1 (stereo not drawn) [Metoprolol, reference compound]
- Papp A→B at 60 min, 10 µM [1]: 39.4 ×10⁻⁶ cm/s
- Papp B→A at 60 min, 10 µM [1]: 36.8 ×10⁻⁶ cm/s
- efflux ratio at 60 min, 10 µM [1]: 0.935

SMILES: C[C@H]1O[C@@H](O[C@H]2[C@@H](O)C[C@H](O[C@H]3[C@@H](O)C[C@H](O[C@H]4CC[C@@]5(C)[C@H](CC[C@@H]6[C@@H]5C[C@@H](O)[C@]5(C)[C@@H](C7=CC(=O)OC7)CC[C@]65O)C4)O[C@@H]3C)O[C@@H]2C)C[C@H](O)[C@@H]1O [Digoxin, reference compound]
- Papp B→A at 60 min, 5 µM (P-gp): 25 ×10⁻⁶ cm/s

SMILES: COc1ccc2[nH]c([S+]([O-])Cc3ncc(C)c(OC)c3C)nc2c1 (stereo not drawn) [Omeprazole]
- Enzyme activity Fold Induction (CYP1A2; female, 48 h, 50 µM): 3.37 fold
- fold induction at 48 h, 50 µM (CYP1A2; female): 4.95
- fold induction at 48 h, 50 µM (CYP1A2; male): 5.22
- Gene expression Fold Induction (CYP1A2 mRNA; female, 48 h, 50 µM): 25.5 fold
- fold induction at 48 h, 50 µM (CYP1A2 mRNA; female): 15.6
- fold induction at 48 h, 50 µM (CYP1A2 mRNA; male): 20.3
